{"source": "patent US20200163880A1", "about": "“CATIONIC LIPOSOMES” (DANMARKS TEKNISKE UNIVERSITET, priority 2017, published 2020)", "key": {"[1]": {"tested_on": "whole blood from healthy human donors", "assay": "Cytokine secretion in ex vivo human whole blood (ELISA, 24 h)", "assay_type": "cell-based", "settings": "24 h incubation", "protocol": "Induction of cytokines from whole blood after treatment and incubation for 24 h. For all figures statistical analyses was made using students T-test, *p<0.05, **p<0.01, ***p<0.005, n=8-10. Test samples were the free TLR7 agonist 1v270 (1v270), the PEGylated cationic formulation with the immune stimulating 1v270 TLR7 agonist (Cationic PEG 1v270 Lip), a non-targeting neutral PEGylated liposome with 1v270 TLR7 agonist (Neutral PEG 1v270 Lip) and a non-PEGylated cationic formulation with 1v270 (Cationic 1v270 Lip). Composition and properties can be seen in Table 1. RPMI is control sample only with addition of media and DMSO is a vehicle control as solvent for 1v270.\nFor targeting a liposome to monocytes and antigen presenting cells (APCs) for use in cancer immunotherapy, it is key to boost an appropriate immune response. To analyze this we examined the ability of TLR7 agonist containing liposomes to induce cytokine secretion after targeting as shown in FIG. 2 and example 4, after another 24 h incubation. […]\nTo determine the optimal content of 1v270 in cationic PEGylated liposomes, liposomes were prepared with 0, 1, 2.5, 5 and 7.5% 1v270 content. […] The liposomes were incubated as described in example 5 and cytokine secretion of anti-tumor cytokines IL-12p70 and IFNα was measured."}, "Balb c mice": {"tested_on": "Balb c mice", "protocol": "Balb c mice were injected intravenously with 200 nmol/mouse of the free 1v270 compound, the Cationic PEG 1v270 Lip formulation and the Cationic 1v270 Lip formulation. […] The AUC values calculated for each cytokine were used to determine I) the Toxicity Prediction with the IL-6/IFNα and IL-6/IL-12p70 ratios, and J) the immunogenicity score by the IFNα/IL-10 and IL-12p70/IL-10 ratios shown in arbitrary units. (n=5 mice/group, Students T-test was used, *p<0.05, **p<0.01, *** p<0.005, ns=non significant, error bars show SE)."}}, "note": "“Also recorded” adds a separate entry of the source.", "data": [{"smiles": "CCCCCCCC/C=C\\CCCCCCCC(=O)OCC(COP(=O)(O)OCCNC(=O)c1ccc(Cn2c(=O)[nH]c3c(N)nc(OCCOC)nc32)cc1)OC(=O)CCCCCCC/C=C\\CCCCCCCC", "note": "(stereo not shown) [1v270, 2-(4-((6-amino-2-(2-methoxyethoxy)-8-oxo-7H-purin-9(8H)-yl)methyl)benzamido)ethyl 2,3-bis(oleoyloxy)propyl phosphate]", "values": [{"measurement": "secretion of IL-6", "setting": "[1]; FIG. 3C", "result": "highest; also recorded: most potent"}, {"measurement": "secretion of IL-10", "setting": "[1]; FIG. 3D", "result": "significantly higher levels"}, {"measurement": "higher toxicity prediction than the cationic PEG 1v270 Lip", "setting": "Balb c mice; AUC ratios, FIG. 4I, ratio not given", "result": 8, "unit": "fold"}, {"measurement": "induction of IFNα in mouse plasma", "setting": "Balb c mice; iv, 200 nmol/mouse, 2, 6 and 24 h", "result": "unable to induce IFNα at all; also recorded: no IFNα was measured"}]}]}
